Where “and” joins values, the source holds several entries; their conditions need not be identical. Equal entries are not always repeated. Entries after “also recorded” stand apart in the source; their conditions may differ.
Legend:
CT26 tumors [1] = test: Subcutaneous implanted CT26 model, h5D8 combined with cisplatin, doxorubicin or paclitaxel; type: in vivo, mouse; conditions: individual BALB/c mice, h5D8 15 mg/kg twice a week, cisplatin 10 mg/kg once a week, paclitaxel 15 mg/kg twice a week, doxorubicin 4 mg/kg once a week
[2] = tested on: LIF-induced STAT3 phosphorylation in U251 glioma cells; test: Inhibition of LIF-induced STAT3 phosphorylation (Tyr705) by western blot, 5D8 humanization panel; type: cell-based, human; conditions: serum starved, antibody 10 μg/ml over night
Protocol: One clone from the rat immunization (5D8) was chosen for subsequent humanization. Humanization was conducted using standard CDR grafting methods. The heavy chain and light chain regions were cloned from the 5D8 hybridoma using standard molecular cloning techniques and sequenced by the Sanger method. A BLAST search was then conducted against human heavy chain and light chain variable sequences and 4 sequences from each were chosen as acceptor frameworks for humanization. These acceptor frameworks were deimmunized to remove T cell response epitopes. The heavy chain and light chain CDR1, CDR2 and CDR3 of 5D8 were cloned into the 4 different heavy chain acceptor frameworks (H1 to H4), and 4 different light chain frameworks (L1 to L4). Then all 16 different antibodies were tested for: expression in CHO-S cells (Selexis); inhibition of LIF-induced STAT3 phosphorylation; and binding affinity by Surface Plasmon Resonance (SPR). These experiments are summarized in
Inhibition of LIF-induced STAT3 phosphorylation at tyrosine 705 was determined by western blot. […] After treatment, proteins were obtained in radio-immunoprecipitation assay (RIPA) lysis buffer containing phosphatase and protease inhibitors, quantified (BCA-protein assay, Thermo Fisher Scientific) and used in western blot. […] Proteins were detected by chemiluminescence (SuperSignal Substrate, catalog #34076, Thermo Fisher Scientific). […]

ID8 cells = test: Ovarian orthotopic syngeneic tumor model ID8 in mice; type: in vivo; conditions: 200 μg/mouse and above twice weekly, FIG. 8C
Protocol: The efficacy of r5D8 was evaluated in two other syngeneic tumor models.
ID8 cells were cultured in Dulbecco's Modified Eagle Medium (DMEM) (Gibco, Invitrogen), supplemented with 10% Fetal Bovine Serum (FBS) (Gibco, Invitrogen), 40 U/mL Penicillin and 40 μg/mL Streptomycin (PenStrep) (Gibco, Invitrogen) and 0.25 μg/mL Plasmocin (Invivogen).
The ID8 cells were harvested, washed in PBS, centrifuged at 400 g for 5 min and resuspended in PBS. Cells were kept on ice to maintain optimal viability and 200 μL of the cell suspension was injected intraperitoneally with a 27G needle. The final cell number implanted into mice was 5×10^6.
Mice were treated twice weekly with h5D8 administered ip at different doses as indicated. Body weights were measured 2 times/week and tumor progression was monitored by measuring abdominal girth using a caliper (Fisher Scientific).

[3] = tested on: STAT3 phosphorylation (Tyr 705) in U251 glioma cells; test: Inhibition of STAT3 phosphorylation in glioma cell culture model of LIF activation, western blot; type: cell-based, human; conditions: 10 μg/ml over night, FIG. 2A
Protocol: U251 glioma cells were plated in 6-well plates at a density of 150,000 cells/well. Cells were cultured in complete medium for 24 hours before any treatment.
After treatment, proteins were obtained in radio-immunoprecipitation assay (RIPA) lysis buffer containing phosphatase and protease inhibitors, quantified (BCA-protein assay, Thermo Fisher Scientific) and used in western blot. For western blot, membranes were blocked for 1 hour in 5% non-fatty milk—TBST and incubated with the primary antibody overnight (p-STAT3, catalog #9145, Cell Signaling or STAT3, catalog #9132, Cell Signaling) or 30 minutes (β-actin-peroxidase, catalog #A3854, Sigma-Aldrich). Membranes were then washed with TBST, incubated with secondary antibody if necessary, and washed again. Proteins were detected by chemiluminescence (SuperSignal Substrate, catalog #34076, Thermo Fisher Scientific).

human U251 GBM cells = test: Orthotopic GBM tumor model with luciferase expressing U251 cells in mice; type: in vivo; conditions: 200 μg or 300 μg twice a week, FIG. 7B
Protocol: Results of this study are shown in FIG. 7A (quantitation at day 26 post treatment). […] Tumor size was determined by bioluminescence (Xenogen IVIS Spectrum) on day 7. […] Statistical significance was calculated using the unpaired non-parametric Mann-Whitney U-test.
U251 cells stably expressing luciferase were harvested, washed in PBS, centrifuged at 400 g for 5 min, resuspended in PBS and counted with an automated cell counter (Countess, Invitrogen). Cells were kept on ice to maintain optimal viability. Mice were anaesthetized with intraperitoneal administration of Ketamine (Ketolar50®)/Xylacine (Rompún®) (75 mg/kg and 10 mg/kg respectively). Each mouse was carefully placed in the stereotactic device and immobilized. […]
Body weight and tumor volume: Body weight was measured 2 times/week and tumor growth was quantified by bioluminescence on day 7 (Xenogen IVIS Spectrum). To quantify bioluminescence activity in vivo, mice were anaesthetized using isofluorane, and injected intraperitoneally with luciferin substrate (PerkinElmer) ([…]).
Tumor size as determined by bioluminescence (Xenogen IVIS Spectrum) was evaluated at day 7. The individual tumor measurements and mean±SEM for each treatment group were calculated. Statistical significance was determined by the unpaired non-parametric Mann-Whitney U-test.

[4] = tested on: KLN205 non-small cell lung cancer (NSCLC) cells; test: Orthotopic syngeneic mouse model of non-small cell lung carcinoma (KLN205); type: in vivo; conditions: DBA/2 mice, 15 mg/kg or 30 mg/kg intraperitoneally twice a week, versus vehicle
Protocol: To determine the ability of the humanized 5D8 clone to inhibit a LIF positive cancer in vivo this antibody was tested in a mouse model of non-small cell lung carcinoma (NSCLC).
The murine non-small cell lung cancer (NSCLC) cell line KLN205 with high LIF levels was stably infected with lentivirus expressing the firefly luciferase gene for in vivo bioluminescence monitoring. To develop the mouse model, 5×10^5KLN205 non-small cell lung cancer (NSCLC) cells were orthotopically implanted into the left lung of 8-week-old immunocompetent syngeneic DBA/2 mice by intercostal puncture. […] For the bioluminescence imaging, mice received an intraperitoneal injection of 0.2 mL of 15 mg/mL D-luciferin under 1-2% inhaled isoflurane anesthesia. The bioluminescence signals were monitored using the IVIS system 2000 series (Xenogen Corp., Alameda, Calif., USA) consisting of a highly sensitive cooled CCD camera. Living Image software (Xenogen Corp.) was used to grid the imaging data and integrate the total bioluminescence signals in each boxed region. Data were analyzed using the total photon flux emission (photons/second) in the regions of interest (ROI). […] Data are presented as mean±SEM.

[5] = tested on: CCL22 and CD206 (MRC1) expression in patient samples; test: Human organotypic tissue slice culture model, M2 macrophage markers; type: cell-based; conditions: three patient samples, FIG. 10B
CT26 tumors [6] = test: Subcutaneous colon CT26 syngeneic tumor model in mice; type: in vivo, mouse; conditions: FIG. 10E
Protocol: CT26 cells were cultured in Roswell Park Memorial Institute medium (RPMI [Gibco, Invitrogen]), supplemented with 10% Fetal Bovine Serum (FBS), 40 U/mL penicillin and 40 μg/mL streptomycin (PenStrep) and 0.25 μg/mL Plasmocin.
CT26 cells (8×10^5)were trypsinized, rinsed with PBS, centrifuged at 400 g for 5 minutes and resuspended in 100 μL PBS. Cells were kept on ice to avoid cell death. The CT26 cells were administered to mice via subcutaneous injection using a 27G needle.
300 μg r5D8, or vehicle control, was administered to the mice via intraperitoneal injection (IP) twice weekly from day 3 post CT26 cell implant.
Body weight and tumor volumes were measured three times per week. Tumor volume was measured using a caliper (Fisher Scientific).

N.N.[Cl][Pt][Cl] [Cisplatin, cis-diamminedichloridoplatinum(II)]
Tumor Volumes at Endpoint (Day 21) (CT26 tumors [1]): 328.5 mm^3 and 1279.7 mm^3 and 689.4 mm^3 and 512.3 mm^3 and 193.9 mm^3 and 997.5 mm^3 and 257.9 mm^3 and 924.4 mm^3 and 744.2 mm^3 and 1313.6 mm^3 and 676.0 mm^3 and 953.8 mm^3

COc1cccc2c1C(=O)c1c(O)c3c(c(O)c1C2=O)C[C@@](O)(C(=O)CO)C[C@@H]3O[C@H]1C[C@H](N)[C@H](O)[C@H](C)O1 [Doxorubicin]
Tumor Volumes at Endpoint (Day 21) (CT26 tumors [1]): 408.7 mm^3 and 1207.4 mm^3 and 94.2 mm^3 and 109.1 mm^3 and 294.9 mm^3 and 780.2 mm^3 and 351.2 mm^3 and 735.2 mm^3 and 48.9 mm^3 and 463.9 mm^3 and 588.8 mm^3 and 230.3 mm^3

CC(=O)O[C@H]1C(=O)[C@@]2(C)[C@H]([C@H](OC(=O)c3ccccc3)[C@]3(O)C[C@H](OC(=O)[C@H](O)[C@@H](NC(=O)c4ccccc4)c4ccccc4)C(C)=C1C3(C)C)[C@]1(OC(C)=O)CO[C@@H]1C[C@@H]2O [Paclitaxel]
Tumor Volumes at Endpoint (Day 21) (CT26 tumors [1]): 651.8 mm^3 and 214.0 mm^3 and 461.5 mm^3 and 698.3 mm^3 and 457.7 mm^3 and 256.2 mm^3 and 592.2 mm^3 and 435.9 mm^3 and 762.1 mm^3 and 1236.2 mm^3 and 112.9 mm^3

h5D8: humanized (CDR grafted) version of rat anti-LIF antibody 5D8, H2 heavy and L2 light chain; VH SEQ ID NO: 42, VL SEQ ID NO: 46
Inhibition of LIF-induced STAT3 phosphorylation (FIG. 1, in words) [2]: high
tumor volume / tumor growth (ID8 cells): reduced tumor volume; also recorded: significant reduction in tumor growth
inhibition of STAT3 phosphorylation (Tyr 705) versus parental antibody [3]: increased inhibition
tumor size by bioluminescence on day 7 (human U251 GBM cells): statistically significant reduction in tumor
tumor growth by bioluminescence [4]: promote tumor regression
tumor growth by bioluminescence ([4]; listed as humanized 5D8): reduced tumor growth
CCL22 and CD206 (MRC1) expression [5]: significant decrease
Tumor Volumes at Endpoint (Day 21) (CT26 tumors [1]): 656.8 mm^3 and 1354.4 mm^3 and 1190.7 mm^3 and 1109.1 mm^3 and 906.6 mm^3 and 640.3 mm^3 and 0.0 mm^3 and 956.9 mm^3 and 318.7 mm^3 and 253.6 mm^3 and 1408.5 mm^3 and 508.3 mm^3
inflammatory phenotype of tumor associated macrophages (TAMs) (CT26 tumors [6]; 15 mg/kg, 2 QW, day 25 (endpoint)): polarized towards the M1 pro-inflammatory phenotype
macrophages with an M1 phenotype (CD206 negative/MHCII positive fraction) (CT26 tumors [6]; syngeneic CT26 tumor model): increased
macrophages with an M2 phenotype (CD206 positive/MHCII negative fraction) (CT26 tumors [6]; syngeneic CT26 tumor model): decreased

Reference: patent US20210187106A1, “COMBINATION OF LIF INHIBITORS AND PLATINUM-BASED ANTINEOPLASTIC AGENTS FOR USE IN TREATING CANCER” (MEDIMMUNE LIMITED, priority 2018, published 2021)
